Measured values as given in US10294243B2, “Bicyclic compounds as pesticides” (BAYER CROPSCIENCE AKTIENGESELLSCHAFT, priority 2014, dated 2019).
Read-outs that look alike come from different tables or passages of the source.

What was measured:
Meloidogyne incognita = Meloidogyne incognita test; format: in vivo; conditions: application rate 20 ppm, lettuce, after 14 days
Protocol: Meloidogyne Incognita Test
Solvent: 125.0 parts by weight of acetone
Vessels are filled with sand, active compound solution, an egg/larvae suspension of the southern root-knot nematode (Meloidogyne incognita) and lettuce seeds. The lettuce seeds germinate and the plants develop. The galls develop on the roots.
After 14 days, the nematicidal efficacy in % is determined by the formation of galls. 100% means that no galls were found; 0% means that the number of galls on the treated plants corresponds to the untreated control.

[1] = log P by HPLC on reversed-phase C18 columns (OECD Guideline 117); method [a] acidic pH 2.7, method [b] neutral pH 7.8; format: physicochemical; conditions: reversed-phase C18 HPLC column
Myzus persicae = Myzus persicae - spray test (Chinese cabbage leaf discs); format: in vivo; conditions: Myzus persicae, foliar, 144 h, application rate 500 g/ha, after 6 days, read-out: efficacy (aphids killed)
Protocol: Myzus persicae—Spray Test
Solvent: 78 parts by weight of acetone • • 1.5 parts by weight of dimethylformamide
Emulsifier: alkylaryl polyglycol ether
To produce further test concentrations, the preparation is diluted with emulsifier-containing water.
After 6 days, the efficacy in % is determined 100% means that all the aphids have been killed; 0% means that none of the aphids have been killed.

O=c1c2sc(-c3cccnc3)nc2ncn1-c1ccc([S+]([O-])C(F)(F)F)cc1 (stereo not shown) [Compound 63, 2-(Pyridin-3-yl)-6-{4-[(trifluoromethyl)sulphinyl]phenyl}[1,3]thiazolo[4,5-d]pyrimidin-7(6H)-one]
nematicidal efficacy (formation of galls) (Meloidogyne incognita): 90% | chromatographic logP ([1]; HPLC reversed-phase C18, method [a] acidic pH 2.7, read-out: logP[a]): 2.03 | chromatographic logP ([1]; HPLC reversed-phase C18, method [b] neutral pH 7.8, read-out: logP[b]): 1.99 | pest or weed control at 500 g/ha (Myzus persicae): 90%
